The supplement of paper PMC10307832

Experiments:
Assay in all cases: relative viability (nuclei count vs DMSO), 5 days (fraction); higher = more cells survive
BX 795 = compound: O=C(NCCCNc1nc(Nc2cccc(NC(=O)N3CCCC3)c2)ncc1I)c1cccs1 [BX 795]
How it was run: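 Only plates meeting two conditions passed: control CV below 25% and at least one doubling. Lung cancer cell lines, kept overnight at 37 °C in 1536-well plates, were pinned with five library-drug doses (not always all listed) √10 apart on vehicle-anchored plates and grown 5 days without medium change. A one-step fix, permeabilisation and Hoechst stain preceded 4× imaging and MetaXpress nuclear counting. Viability equals treated-well nuclei divided by vehicle-well nuclei, as the median over plates.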

BX 795 + Trametinib = compound: O=C(NCCCNc1nc(Nc2cccc(NC(=O)N3CCCC3)c2)ncc1I)c1cccs1 [BX 795] + CC(=O)Nc1cccc(-n2c(=O)n(C3CC3)c(=O)c3c(Nc4ccc(I)cc4F)n(C)c(=O)c(C)c32)c1 [Trametinib] (partner 0.02 µM)
How it was run: (§1)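 Lung cancer cell lines, seeded in 1536-well plates, were treated the following day by pin tool with a single drug or with five library-drug doses (not always all listed) in √10 steps on top of a fixed anchor-drug dose. Cells were fixed and nuclei stained in one step after 5 days, and nuclei were counted. Relative viability is the nuclei count for treated wells divided by that for vehicle wells, reported as medians of duplicate plates.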

BX 795 + Palbociclib = compound: O=C(NCCCNc1nc(Nc2cccc(NC(=O)N3CCCC3)c2)ncc1I)c1cccs1 [BX 795] + CC(=O)c1c(C)c2cnc(Nc3ccc(N4CCNCC4)cn3)nc2n(C2CCCC2)c1=O [Palbociclib] (partner 0.5 µM)
How it was run: as §1

BX 795 + OSI-027 = compound: O=C(NCCCNc1nc(Nc2cccc(NC(=O)N3CCCC3)c2)ncc1I)c1cccs1 [BX 795] + COc1cccc2cc(-c3nc([C@H]4CC[C@H](C(=O)O)CC4)n4ncnc(N)c34)[nH]c12 [OSI-027] (partner 0.5 µM)
How it was run: as §1

BX 795 + Tozasertib = compound: O=C(NCCCNc1nc(Nc2cccc(NC(=O)N3CCCC3)c2)ncc1I)c1cccs1 [BX 795] + Cc1cc(Nc2cc(N3CCN(C)CC3)nc(Sc3ccc(NC(=O)C4CC4)cc3)n2)n[nH]1 [Tozasertib] (partner 0.1 µM)
How it was run: as §1

BX 795 + AZD7762 = compound: O=C(NCCCNc1nc(Nc2cccc(NC(=O)N3CCCC3)c2)ncc1I)c1cccs1 [BX 795] + NC(=O)Nc1cc(-c2cccc(F)c2)sc1C(=O)N[C@H]1CCCNC1 [AZD7762] (partner 0.2 µM)
How it was run: as §1

BX 795 + Pemetrexed = compound: O=C(NCCCNc1nc(Nc2cccc(NC(=O)N3CCCC3)c2)ncc1I)c1cccs1 [BX 795] + Nc1nc2[nH]cc(CCc3ccc(C(=O)N[C@@H](CCC(=O)O)C(=O)O)cc3)c2c(=O)[nH]1 [Pemetrexed] (partner 0.2 µM)
How it was run: as §1

BX 795 + Decitabine = compound: O=C(NCCCNc1nc(Nc2cccc(NC(=O)N3CCCC3)c2)ncc1I)c1cccs1 [BX 795] + Nc1ncn([C@H]2C[C@H](O)[C@@H](CO)O2)c(=O)n1 [Decitabine] (partner 2 µM)
How it was run: as §1

BX 795 + Vorinostat = compound: O=C(NCCCNc1nc(Nc2cccc(NC(=O)N3CCCC3)c2)ncc1I)c1cccs1 [BX 795] + O=C(CCCCCCC(=O)Nc1ccccc1)NO [Vorinostat] (partner 1 µM)
How it was run: as §1

BX 795 + Olaparib = compound: O=C(NCCCNc1nc(Nc2cccc(NC(=O)N3CCCC3)c2)ncc1I)c1cccs1 [BX 795] + O=C(c1cc(Cc2n[nH]c(=O)c3ccccc23)ccc1F)N1CCN(C(=O)C2CC2)CC1 [Olaparib] (partner 8 µM)
How it was run: as §1

NCI-H1648
relative viability (BX 795; 0.04 µM): 0.872 | relative viability (BX 795; 0.1265 µM): 0.804 | relative viability (BX 795; 0.4 µM): 0.972 | relative viability (BX 795; 1.265 µM): 1.01 | relative viability (BX 795 + Trametinib; first compound 0.04 µM): 0.526 | relative viability (BX 795 + Trametinib; first compound 0.1265 µM): 0.451 | relative viability (BX 795 + Trametinib; first compound 0.4 µM): 0.575 | relative viability (BX 795 + Trametinib; first compound 1.265 µM): 0.481 | relative viability (BX 795 + Palbociclib; first compound 0.04 µM): 0.267 | relative viability (BX 795 + Palbociclib; first compound 0.1265 µM): 0.264 | relative viability (BX 795 + Palbociclib; first compound 0.4 µM): 0.411 | relative viability (BX 795 + Palbociclib; first compound 1.265 µM): 0.299 | relative viability (BX 795 + OSI-027; first compound 0.04 µM): 0.258 | relative viability (BX 795 + OSI-027; first compound 0.1265 µM): 0.214 | relative viability (BX 795 + OSI-027; first compound 0.4 µM): 0.265 | relative viability (BX 795 + OSI-027; first compound 1.265 µM): 0.247 | relative viability (BX 795 + Tozasertib; first compound 0.04 µM): 0.611 | relative viability (BX 795 + Tozasertib; first compound 0.1265 µM): 0.466 | relative viability (BX 795 + Tozasertib; first compound 0.4 µM): 0.638 | relative viability (BX 795 + Tozasertib; first compound 1.265 µM): 0.378 | relative viability (BX 795 + AZD7762; first compound 0.04 µM): 0.833 | relative viability (BX 795 + AZD7762; first compound 0.1265 µM): 0.756 | relative viability (BX 795 + AZD7762; first compound 0.4 µM): 0.791 | relative viability (BX 795 + AZD7762; first compound 1.265 µM): 0.911 | relative viability (BX 795 + Pemetrexed; first compound 0.04 µM): 0.727 | relative viability (BX 795 + Pemetrexed; first compound 0.1265 µM): 0.824 | relative viability (BX 795 + Pemetrexed; first compound 0.4 µM): 0.834 | relative viability (BX 795 + Pemetrexed; first compound 1.265 µM): 1.02 | relative viability (BX 795 + Decitabine; first compound 0.04 µM): 0.584 | relative viability (BX 795 + Decitabine; first compound 0.1265 µM): 0.442 | relative viability (BX 795 + Decitabine; first compound 0.4 µM): 0.523 | relative viability (BX 795 + Decitabine; first compound 1.265 µM): 0.616 | relative viability (BX 795 + Vorinostat; first compound 0.04 µM): 0.441 | relative viability (BX 795 + Vorinostat; first compound 0.1265 µM): 0.525 | relative viability (BX 795 + Vorinostat; first compound 0.4 µM): 0.668 | relative viability (BX 795 + Vorinostat; first compound 1.265 µM): 0.535 | relative viability (BX 795 + Olaparib; first compound 0.04 µM): 0.869 | relative viability (BX 795 + Olaparib; first compound 0.1265 µM): 1.51 | relative viability (BX 795 + Olaparib; first compound 0.4 µM): 1.15 | relative viability (BX 795 + Olaparib; first compound 1.265 µM): 1.11
